Assay results: patent publication US9078446B2, “Use of N-(tetrazol-4-yl)- or N-(triazol-3-yl)arylcarboxamides or their salts for controlling unwanted plants in areas of transgenic crop plants being tolerant to HPPD inhibitor herbicides” (BAYER INTELLECTUAL PROPERTY GMBH, priority 2011, dated 2015)

What was measured:
[1] = tested on: transgenic tobacco plants expressing Avena HPPD (AvHPPD); test: Symptoms due to herbicide application on transgenic tobacco plants (damage classes 0-3); type: in vivo; conditions: 25 g Al/ha, one week after application
Procedure, shortened: (§1)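 Tobacco transformed via pBin19 with the HPPD gene under CaMV35S, fused to an N-terminal chloroplast transit peptide. T1 plants, potted at 3 weeks and grown 2 more weeks, sprayed with N-(tetrazol-4-yl)/N-(triazol-3-yl)arylcarboxamides (g AI/ha) on 8–10 plants from 1–3 events per transgene. Damage scored 0 (none) to 3 (very strong), versus non-transformed plants.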

[2] = tested on: transgenic tobacco plants expressing mutant Pseudomonas fluorescens HPPD G336W (PfHPPD-G336W); test: as above; type: in vivo; conditions: PfHPPD-G336W line 646; 25 g Al/ha; one week after application
Procedure, shortened: as §1

[3] = tested on: transgenic tobacco plants expressing HPPD from Kordia algicida FMP27; test: as above; type: in vivo; conditions: 25 g Al/ha, one week after application
Procedure, shortened: as §1

[4] = tested on: transgenic tobacco plants expressing HPPD from Blepharisma japonicum (FMP37); test: as above; type: in vivo; conditions: 25 g Al/ha, one week after application
Procedure, shortened: as §1

[5] = tested on: FMP27 (HPPD derived from Kordia algicida); test: Determination of HPPD activity in presence of HPPD inhibitor (percentage of inhibition); type: biochemical
Procedure: (§2) The HPPD activity was checked by the standard spectrophotmetric assay (method extensively described in WO 2009/144079)
(§3) Level of tolerance of HPPD proteins obtained from different organisms was determined according to the procedure as described in PCT/EP2010/070575.
(§4) Table E1: Determination of Percentage of Inhibition in Presence of 5.0×10^−6M of Compound “4-137” Compared to the Activity Measured in Absence of Compound No. “4-137” With HPPD Originated from Arabidopsis thaliana (AtHPPD), Mutated Pseudomonas fluorescens PfHPPD-G336W, Avena sativa (AvHPPD), FMP27 (Derived from Kordia algicida) and FMP37 (Derived from Blepharisma japonicum).

[6] = tested on: mutated Pseudomonas fluorescens PfHPPD-G336W; test: as above; type: biochemical
Procedure: as §2, §3, §4

[7] = tested on: Avena sativa HPPD (AvHPPD); test: as above; type: biochemical
Procedure: as §2, §3, §4

[8] = target: T1, Arabidopsis thaliana HPPD (AtHPPD) (Arabidopsis thaliana, UniProt P93836); test: as above; type: biochemical; conditions: 5.0×10^−6M of compound, compared to activity in absence of compound
T1 construct: His6 (N); made in house; host or cells: E. coli K-12 BL21
T1 sequence (P93836 1-445): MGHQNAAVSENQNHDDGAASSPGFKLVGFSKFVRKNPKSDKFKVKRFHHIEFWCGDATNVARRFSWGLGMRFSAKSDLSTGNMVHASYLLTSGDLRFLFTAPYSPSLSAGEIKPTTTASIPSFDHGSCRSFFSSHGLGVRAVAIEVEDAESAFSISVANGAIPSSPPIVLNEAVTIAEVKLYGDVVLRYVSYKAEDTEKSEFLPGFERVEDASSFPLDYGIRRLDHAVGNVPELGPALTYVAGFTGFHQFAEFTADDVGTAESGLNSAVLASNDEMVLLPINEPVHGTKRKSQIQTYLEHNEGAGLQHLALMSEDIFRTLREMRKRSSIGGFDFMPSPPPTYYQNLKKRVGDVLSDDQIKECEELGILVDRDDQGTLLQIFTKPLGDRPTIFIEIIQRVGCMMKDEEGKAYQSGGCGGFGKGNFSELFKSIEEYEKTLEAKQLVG
Procedure: as §2, §3, §4

Cc1c(C(=O)Nc2nnnn2C)ccc(C(F)(F)F)c1S(C)(=O)=O [Compound 4-137]
3: number of plants with Damage 0 (No damage) ([1]; AvHPPD line 656) | number of plants with Damage 0 (No damage) ([1]; AvHPPD line 659) | number of plants with Damage 1 (Light and transient damage) ([1]; AvHPPD line 659) | number of plants with Damage 3 (Very strong damage) [2] | number of plants with Damage 3 (Very strong damage) ([3]; FMP27 line 734) | number of plants with Damage 0 (No damage) ([3]; FMP27 line 735) | number of plants with Damage 3 (Very strong damage) ([3]; FMP27 line 735)
2: number of plants with Damage 1 (Light and transient damage) ([1]; AvHPPD line 699) | number of plants with Damage 1 (Light and transient damage) [2] | number of plants with Damage 1 (Light and transient damage) ([3]; FMP27 line 734) | number of plants with Damage 1 (Light and transient damage) ([4]; FMP37 line 749) | number of plants with Damage 0 (No damage) ([4]; FMP37 line 795) | number of plants with Damage 2 (Strong damage) ([4]; FMP37 line 795)
92%: Inhibition % ([6]; 5.0×10^−6M of compound, compared to activity in absence of compound, PfHPPD-G336W)
100%: Inhibition % [8]
less sensitive: tolerance/sensitivity of the HPPD to the inhibitor compared to Arabidopsis thaliana HPPD ([5]; FMP27 versus AtHPPD, identical experimental conditions) | tolerance/sensitivity of the HPPD to the inhibitor compared to Arabidopsis thaliana HPPD ([6]; PfHPPD-G336W versus AtHPPD, identical experimental conditions) | tolerance/sensitivity of the HPPD to the inhibitor compared to Arabidopsis thaliana HPPD ([7]; AvHPPD versus AtHPPD, identical experimental conditions)
1: number of plants with Damage 1 (Light and transient damage) ([1]; AvHPPD line 656) | number of plants with Damage 2 (Strong damage) ([1]; AvHPPD line 656) | number of plants with Damage 0 (No damage) ([1]; AvHPPD line 699) | number of plants with Damage 2 (Strong damage) ([3]; FMP27 line 733) | number of plants with Damage 1 (Light and transient damage) ([4]; FMP37 line 754) | number of plants with Damage 2 (Strong damage) ([4]; FMP37 line 754)
6: number of plants with Damage 3 (Very strong damage) ([4]; FMP37 line 795)
90%: Inhibition % ([5]; 5.0×10^−6M of compound, compared to activity in absence of compound, FMP27)
93%: Inhibition % ([7]; 5.0×10^−6M of compound, compared to activity in absence of compound, AvHPPD)
5: number of plants with Damage 3 (Very strong damage) ([1]; AvHPPD line 656) | number of plants with Damage 0 (No damage) [2] | number of plants with Damage 3 (Very strong damage) ([3]; FMP27 line 733) | number of plants with Damage 0 (No damage) ([3]; FMP27 line 734)
0: number of plants with Damage 2 (Strong damage) ([1]; AvHPPD line 659) | number of plants with Damage 2 (Strong damage) ([1]; AvHPPD line 699) | number of plants with Damage 2 (Strong damage) [2] | number of plants with Damage 1 (Light and transient damage) ([3]; FMP27 line 733) | number of plants with Damage 2 (Strong damage) ([3]; FMP27 line 734) | number of plants with Damage 1 (Light and transient damage) ([3]; FMP27 line 735) | number of plants with Damage 2 (Strong damage) ([4]; FMP37 line 749) | number of plants with Damage 3 (Very strong damage) ([4]; FMP37 line 749) | number of plants with Damage 0 (No damage) ([4]; FMP37 line 754) | number of plants with Damage 1 (Light and transient damage) ([4]; FMP37 line 795)
8: number of plants with Damage 0 (No damage) ([4]; FMP37 line 749) | number of plants with Damage 3 (Very strong damage) ([4]; FMP37 line 754)
4: number of plants with Damage 3 (Very strong damage) ([1]; AvHPPD line 659) | number of plants with Damage 0 (No damage) ([3]; FMP27 line 733) | number of plants with Damage 2 (Strong damage) ([3]; FMP27 line 735)
7: number of plants with Damage 3 (Very strong damage) ([1]; AvHPPD line 699)
